Assay results taken from publication PMC6943552, “Glucosinolates in Sisymbrium officinale (L.) Scop.: Comparative Analysis in Cultivated and Wild Plants and in Vitro Assays with T2Rs Bitter Taste Receptors” (Molecules, 2019).

Molecular target: T1, T2R16 (hT2R16) (Homo sapiens, UniProt Q9NYV7)
T1 construct: gene TAS2R16; coding region with N-terminal rSST3 tag (45 N-terminal residues of rat somatostatin receptor subtype 3), pcDNA5, transient in HEK293 PEAKrapid Galpha16i/o44 cells
T1 sequence (Q9NYV7 1-291): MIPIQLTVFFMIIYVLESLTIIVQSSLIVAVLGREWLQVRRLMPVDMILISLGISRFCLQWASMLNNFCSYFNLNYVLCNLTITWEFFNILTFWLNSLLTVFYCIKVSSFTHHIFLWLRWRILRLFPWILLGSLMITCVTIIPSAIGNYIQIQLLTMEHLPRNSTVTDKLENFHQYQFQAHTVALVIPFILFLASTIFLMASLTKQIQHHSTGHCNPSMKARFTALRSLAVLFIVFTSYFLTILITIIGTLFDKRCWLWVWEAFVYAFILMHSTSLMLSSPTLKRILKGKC
Experiment: FLIPR calcium imaging (Cal520-AM)
Type: cell-based

Structure (SMILES): CC(C)/C(=N/OS(=O)(=O)O)S[C@@H]1O[C@H](CO)[C@@H](O)[C@H](O)[C@H]1O [compound 3, glucoputranjivin]
- EC50: > 1 mM
